Results on ten compounds are retold here after US5391540A, “Substituted pyridine compounds” (Rohm and Haas Company, priority 1993, dated 1995).

Test in all cases: Pre-emergent herbicidal activity (Table A)
Holding throughout (assay type): in vivo

The subject of one experiment is Barnyardgrass. The following applies: Echinochloa crus-galli, pre-emergence, Bygr, 11.2 kg/ha, 10-14 days, read-out: herbicidal rating (% inhibition). The method in brief:
(§1)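 Percent inhibition per species, scored on a rating scale, after pre-emergent soil incorporation: test compound in acetone or water carrier mixed into cover soil, layered over seeded topsoil or vegetative propagules.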

In another experiment the test system is Downy Brome. The following applies: Bromus tectorum, pre-emergence, Dobr, 11.2 kg/ha, 10-14 days, read-out: herbicidal rating (% inhibition). The method in brief: as §1
Another experiment has as its system Yellow Nutsedge. To be noted: Cyperus, pre-emergence, Yens, 11.2 kg/ha, 10-14 days, read-out: herbicidal rating (% inhibition). The method, boiled down:
as §1

The subject of the next experiment is Morningglory. To be noted: Ipomoea, pre-emergence, Mogl, 11.2 kg/ha, 10-14 days, read-out: herbicidal rating (% inhibition). The method, boiled down:
as §1

The next experiment relates to Cocklebur. The following applies: Xanthium strumarium, pre-emergence, Cobu, 11.2 kg/ha, 10-14 days, read-out: herbicidal rating (% inhibition). The method in brief: as §1
The next experiment relates to Velvetleaf. The following applies: Abutilon theophrasti, pre-emergence, Vele, 11.2 kg/ha, 10-14 days, read-out: herbicidal rating (% inhibition). The method, boiled down:
as §1

A further experiment concerns Indian Mustard. The following applies: Brassica juncea, pre-emergence, Inmu, 11.2 kg/ha, 10-14 days, read-out: herbicidal rating (% inhibition). The method, then: (§2) Tables A and B summarize results of tests conducted to determine the pre-emergent herbicidal activity of the compounds of this invention. The herbicidal ratings used in Tables A and B were assigned according to a scale based on the percent inhibition of each plant species. The herbicide rating symbols in Tables A and B are defined as follows: […]
(§3) One set of pre-emergent tests was conducted as follows:
(§4) Topsoil was placed in a pan and compacted to a depth of 0.95 to 1.27 cm. from the top of the pan. A predetermined number of seeds of each of several monocotyledonous and dicotyledonous annual plant species and/or vegetative propagules of various perennial plant species were placed on top of the soil. The soil required to level fill a pan after seeding or adding vegetative propagules was weighed into another pan. A known amount of the test compound dissolved or suspended in an organic solvent or water and applied in acetone or water as a carrier was thoroughly mixed with this cover soil, and the herbicide/soil mixture was used as a cover layer for the previously prepared pan. In Table A below the amounts of active ingredient were all equivalent to an application rate of 11.2 kilograms/hectare (kg/ha). After treatment, the pans were moved to a greenhouse bench where they were watered as needed to give adequate moisture for germination and growth.
(§5) Approximately 10-14 days (usually 11 days) after planting and treating, the plants were observed and the results recorded.
(§6) The plant species usually regarded as weeds which were utilized in one set of pre-emergent activity tests, the data for which are shown in Table A, are identified by letter headings printed diagonally above the columns according to the following legend: […]

In the next experiment the test system is Wild Buckwheat. The following applies: Fallopia convolvulus, pre-emergence, Wibw, 11.2 kg/ha, 10-14 days, read-out: herbicidal rating (% inhibition). The method, then:
as §2, §3, §4, §5, §6

In a further experiment the test system is Annual Bluegrass. The following applies: pre-emergence, Anbg, 11.2 kg/ha, 10-14 days, read-out: herbicidal rating (% inhibition). The method, then:
as §2, §3, §4, §5, §6

The subject of another experiment is Seedling Johnsongrass. The following applies: Sorghum halepense, pre-emergence, Sejg, 11.2 kg/ha, 10-14 days, read-out: herbicidal rating (% inhibition). As for the experimental part:
as §2, §3, §4, §5, §6

`COC(=O)c1c(OC)nc(C(F)(F)F)c(C(=O)n2cc(NC(C)=O)cn2)c1CC(C)C` [Compound 107, 3-pyridinecarboxylic acid, 5-[[4-(acetylamino)-1H-pyrazol-1-yl]carbonyl]-2-methoxy-4-(2-methylpropyl)-6-(trifluoromethyl)-, methyl ester]: the inhibition at 11200 g/ha is 75 to 100% with Barnyardgrass; 0 to 24% in the experiment with Downy Brome; 0 to 24% with Yellow Nutsedge; 75 to 100% in the experiment with Morningglory; 0 to 24% in the experiment on Cocklebur; 75 to 100% with Velvetleaf. Besides, the inhibition at 11200 g/ha was in the range of 75 to 100% in the experiment with Indian Mustard, 50 to 74% with Wild Buckwheat, 75 to 100% with Annual Bluegrass and 75 to 100% with Seedling Johnsongrass.
Take `COC(=O)c1c(OC)nc(C(F)(F)F)c(C(=O)n2cc(N)cn2)c1CC(C)C` [Compound 108, 3-pyridinecarboxylic acid, 5-[(4-amino-1H-pyrazo1-1-yl)carbonyl]-2-methoxy-4-(2-methylpropyl)-6-(trifluoromethyl)-, methyl ester]: the inhibition at 11200 g/ha in the experiment with Barnyardgrass is 75 to 100%; with Downy Brome, 0 to 24%; in the experiment with Yellow Nutsedge it was 0 to 24%; in the experiment on Morningglory, 0 to 24%; with Cocklebur, 0 to 24%; in the experiment on Velvetleaf, 50 to 74%. Also, the inhibition at 11200 g/ha in the experiment with Indian Mustard lay in the range of 75 to 100%; with Wild Buckwheat, 75 to 100%; in the experiment on Annual Bluegrass, 75 to 100%; in the experiment with Seedling Johnsongrass, 50 to 74%.
Regarding `COC(=O)c1c(OC)nc(C(F)(F)F)c(C2OCCO2)c1CC(C)C` [Compound 109, 3-pyridinecarboxylic acid, 5-(1,3-dioxolan-2-yl)-2-methoxy-4-(2-methylpropyl)-6-(trifluoromethyl)-, methyl ester], the inhibition at 11200 g/ha in the experiment with Barnyardgrass, with Downy Brome, in the experiment on Yellow Nutsedge, with Morningglory, with Cocklebur and in the experiment with Velvetleaf was 75 to 100% in each case. Besides, the inhibition at 11200 g/ha in the experiment on Indian Mustard, in the experiment with Wild Buckwheat, with Annual Bluegrass and in the experiment with Seedling Johnsongrass was 75 to 100% in each case.
In the case of `COC(=O)c1c(OC)nc(C(F)(F)F)c(C2OCCCO2)c1CC(C)C` [Compound 110, 3-pyridinecarboxylic acid, 5-(1,3-dioxan-2-yl)-2-methoxy-4-(2-methylpropyl)-6-(trifluoromethyl)-, methyl ester], the inhibition at 11200 g/ha in the experiment with Barnyardgrass fell in the range of 75 to 100%; with Downy Brome it was 75 to 100%; in the experiment with Yellow Nutsedge it was 50 to 74%; in the experiment on Morningglory it was 75 to 100%; in the experiment on Cocklebur it was 75 to 100%; in the experiment on Velvetleaf it was 75 to 100%. For the same compound, the inhibition at 11200 g/ha in the experiment on Indian Mustard, with Wild Buckwheat, in the experiment with Annual Bluegrass and in the experiment with Seedling Johnsongrass was 75 to 100% each time.
With `COC(=O)c1c(OC)nc(C(F)(F)F)c(C(=O)n2cc(C#N)cn2)c1CC(C)C` [Compound 111, 3-pyridinecarboxylic acid, 5-[(4-cyano-1H-pyrazo1-1-yl)carbonyl]-2-methoxy-4-(2-methylpropyl)-6-(trifluoromethyl)-, methyl ester], the inhibition at 11200 g/ha in the experiment with Barnyardgrass fell in the range of 75 to 100%; with Downy Brome, 50 to 74%; in the experiment with Yellow Nutsedge it was 0 to 24%; in the experiment with Morningglory, 75 to 100%; in the experiment on Cocklebur, 0 to 24%; with Velvetleaf, 75 to 100%. Moreover, the inhibition at 11200 g/ha in the experiment with Indian Mustard, in the experiment with Wild Buckwheat, in the experiment on Annual Bluegrass and in the experiment on Seedling Johnsongrass was 75 to 100% throughout.
On to `COC(=O)c1c(OC)nc(C(F)(F)F)c(C(=O)OCC(F)(F)F)c1CC(C)C` [Compound 112, 3,5-pyridinedicarboxylic acid, 2-methoxy-4-(2-methylpropyl)-6-(trifluoromethyl)-, 3-methyl 5-(2,2,2-trifluoroethyl) ester], for which the inhibition at 11200 g/ha in the experiment with Barnyardgrass is 75 to 100%; with Downy Brome, 75 to 100%; in the experiment with Yellow Nutsedge, 0 to 24%; in the experiment with Morningglory, 50 to 74%; with Cocklebur, 0 to 24%; in the experiment with Velvetleaf, 75 to 100%. Moreover, the inhibition at 11200 g/ha in the experiment on Indian Mustard, with Wild Buckwheat, in the experiment with Annual Bluegrass and with Seedling Johnsongrass was 75 to 100% each time.
For the compound `COC(=O)c1c(OC)nc(C(F)(F)F)c(-c2cnco2)c1CC(C)C` [Compound 114, 3-pyridinecarboxylic acid, 2-methoxy-4-(2-methylpropyl)-5-(5-oxazolyl)-6-(trifluoromethyl)-, methyl ester], the inhibition at 11200 g/ha with Barnyardgrass fell in the range of 75 to 100%; in the experiment with Downy Brome, 75 to 100%; in the experiment with Yellow Nutsedge, 25 to 49%; with Morningglory, 50 to 74%; with Cocklebur, 0 to 24%; in the experiment on Velvetleaf, 75 to 100%. Besides, the inhibition at 11200 g/ha in the experiment with Indian Mustard, in the experiment with Wild Buckwheat, with Annual Bluegrass and in the experiment with Seedling Johnsongrass was 75 to 100% in each case.
As to `COC(=O)c1c(OC)nc(C(F)(F)F)c(C=O)c1CC1CC1` [Compound 115, 3-pyridinecarboxylic acid, 4-(cyclopropylmethyl)-5-formy1-2-methoxy-6-(trifluoromethyl)-, methyl ester], the inhibition at 11200 g/ha with Barnyardgrass was in the range of 75 to 100%; in the experiment with Downy Brome, 75 to 100%; in the experiment with Yellow Nutsedge, 25 to 49%; in the experiment with Morningglory, 50 to 74%; with Cocklebur it was 0 to 24%; with Velvetleaf, 50 to 74%. The inhibition at 11200 g/ha in the experiment with Indian Mustard was in the range of 75 to 100%; in the experiment with Wild Buckwheat, 50 to 74%; in the experiment with Annual Bluegrass it was 75 to 100%; in the experiment on Seedling Johnsongrass, 75 to 100%.
Regarding `COC(=O)c1c(OC)nc(C(F)(F)F)c(CO)c1CC1CC1` [Compound 117, 3-pyridinecarboxylic acid, 4-(cyclopropylmethyl)-5-(hydroxymethyl)-2-methoxy-6-(trifluoromethyl)-, methyl ester], the inhibition at 11200 g/ha in the experiment on Barnyardgrass lay in the range of 75 to 100%; with Downy Brome it was 0 to 24%; in the experiment on Yellow Nutsedge, 0 to 24%; in the experiment on Morningglory it was 0 to 24%; in the experiment with Cocklebur, 0 to 24%; in the experiment on Velvetleaf it was 25 to 49%. Besides, the inhibition at 11200 g/ha in the experiment with Indian Mustard fell in the range of 50 to 74%; in the experiment with Wild Buckwheat, 50 to 74%; with Annual Bluegrass it was 75 to 100%; in the experiment on Seedling Johnsongrass, 75 to 100%.
Regarding `COC(=O)c1c(OC)nc(C(F)(F)F)c(C2OCCO2)c1CC1CC1` [Compound 118, 3-pyridinecarboxylic acid, 4-(cyclopropylmethyl)-5-(1,3-dioxolan-2-yl)-2-methoxy-6-(trifluoromethyl)-, methyl ester], the inhibition at 11200 g/ha fell in the range of 75 to 100% with Barnyardgrass; 75 to 100% in the experiment with Downy Brome; 75 to 100% in the experiment on Yellow Nutsedge; 75 to 100% with Morningglory; 0 to 24% in the experiment on Cocklebur; 75 to 100% with Velvetleaf. Moreover, the inhibition at 11200 g/ha in the experiment with Indian Mustard, with Wild Buckwheat, in the experiment with Annual Bluegrass and in the experiment with Seedling Johnsongrass was 75 to 100% in each case.

One may read the inhibition as how much of the control response was suppressed.
